In ChEMBL document CHEMBL3769383, “Cefsulodin Inspired Potent and Selective Inhibitors of mPTPB, a Virulent Phosphatase from Mycobacterium tuberculosis” (ACS Med Chem Lett, 2015):

How the values were obtained:
[1] = Inhibition of Mycobacterium tuberculosis PTPB expressed in Escherichia coli BL21/DE3 cells using pNPP as substrate after 5 mins by spectrophotometry
BL21-DE3 = test: Potency index, ratio of SPAA IC50 to compound IC50 for Mycobacterium tuberculosis PTPB expressed in Escherichia coli BL21/DE3 cells

In the case of `CCCNC(=O)C(c1ccccc1)S(=O)(=O)O` (racemic), the IC50 [1] is reported as 16 µM and the Ratio IC50 (BL21-DE3) is reported as 11.
